# Measured values reported in patent US20240156083A1, “CRYOBIOPRINTING FOR TISSUE FABRICATION AND STORAGE” (THE BRIGHAM AND WOMEN'S HOSPITAL, INC., priority 2022, published 2024).
# What was measured:
# [1] = Ice crystal-formation imaging, fractal dimension (FD) analysis; type: physicochemical; conditions: GelMA bioink, 90% of field of view frozen, versus DMSO-free control
# Text: One critical factor that affects cell viability during cryopreservation is the formation of ice crystals (Cheng Y, et al., Small 15, 1904290). The spicular ice crystals can damage the cell membrane, resulting in lower cell viability. […] The addition of CPAs noticeably affected the shape of ice crystals. In the control sample (without DMSO), the ice crystals were more spicular and formed faster than the other study groups. Increasing the DMSO concentration led to the formation of fine ice crystals; however, no remarkable improvement in ice-crystallization was observed when the saccharide concentration was increased, as the saccharide merely prevents osmotic damage to the cells. The fractal dimension (FD) theory, in conjunction with an image processing method, was employed to quantitatively compare the smoothness and the growth rate of the ice crystals. The FD value quantifies the geometry's irregularities. In our analysis, ice crystals' boundaries were extracted from the brightfield images and digitized. The FD value for the resulting quasi-circle geometry was then calculated using equation (1) (Chen Y, Math. Probl. Eng 2020, 7528703).
# , where P and A stand for the perimeter and the area of the quasi-circle geometry, respectively. FD is an indicator of how the quasi-circle geometry deviates from a circle. […] When 90% of the field of view was frozen, the FD values were recorded and compared. […]
# [2] = tested on: C2C12 cells; test: Live/dead cell viability after 72 h cryopreservation in GelMA with DMSO and saccharides; type: cell-based, mouse; conditions: C2C12 in 5% (w/v) GelMA; for most effective saccharide concentration for cell viability increase: 72 h cryopreservation, normalized to control with same DMSO concentration
# Method: A series of cell viability experiments were conducted using different concentrations of DMSO and saccharides to find the optimized configuration of CPAs in GelMA. […] The cell-laden bioink was used to produce samples containing different concentrations of DMSO and saccharides at room temperature (RT). The cast samples were then directly transferred to −80° C. for 24 h, conventionally cryopreserved in liquid nitrogen for 72 h, crosslinked via UV exposure, and underwent live/dead assays. […] By using the fluorescence images, the cell viability ratios of C2C12 cells were determined. […] Cell viability of each group was normalized to the control group with the same DMSO concentration to choose the most functional saccharide and its optimum concentration (FIG. 3, B to D). […] Ninety-six groups of GelMA samples (four DMSO concentrations, four saccharide concentrations, and six types of saccharides) were studied to identify the optimal CPA configuration. C2C12 cells were encapsulated in the GelMA/CPAs precursor. A volume of 50 μL of the cell-laden precursor was directly cast on a freezing plate in aseptic conditions. […] On day 3, the samples were removed from cryogenic storage and directly crosslinked via UV exposure. The samples were washed in PBS to remove any excess CPAs in preparation for subsequent use. Cell viability was quantified within unthawed cell-encapsulated samples to identify the optimal combination of CPAs. Following the crosslinking and washing steps, the hydrogel samples were cultured for a definite period and then stained using calcein-AM and ethidium homodimer-1 (Thermo Fisher Scientific) per the provider's protocol. An inverted Eclipse-Ti fluorescence microscope (Nikon) was employed to image the live and dead cells in green and red channels, respectively. The ratio of live cells to the total captured cells in random regions of the samples was determined through processing the fluorescent images using ImageJ.
# [3] = Splat ice recrystallization-inhibition assay; type: physicochemical; conditions: GelMA, Tp −20° C., 30 min, increasing DMSO concentration
# Method: To further confirm the effect of CPAs on inhibiting ice-recrystallization, a modified splat assay was employed. […] Smaller crystal size is an indication of enhanced ice recrystallization-inhibition (Tomczak MM, et al., Biochem. Biophys. Res. Commun 311, 1041-1046).
# The splat cooling assay was performed following the previously developed protocols (Georgiou PG, et al., J. Am. Chem. Soc 143, 7449-7461). Briefly, 10 μL of samples with different DMSO concentrations was added between two glass coverslips. The coverslips were placed on the freezing plate (Tp=−20° C.) for 30 min. Images were then obtained using an optical microscope (Nikon) and processed by ImageJ (National Institutes of Health) to determine the ice crystal size in each group.
# [4] = tested on: C2C12 cells; test: Live/Dead viability in vertically cryobioprinted GelMA constructs; type: cell-based, mouse; conditions: 7.5% GelMA
# Text: The C2C12 myoblast-laden cryobioprinted samples containing DMSO and melezitose were subjected to Live/Dead assays on Days 1, 3, and 7. The 7.5% GelMA bioinks containing different concentrations (5%, 10%, and 15%) of DMSO were initially used to gain understanding on its cryoprotectant effect. The optimum concentration of DMSO was found at 10% for maximizing cell viability in the absence of the saccharide. GelMA bioinks containing different concentrations (4%, 8%, and 12%) of melezitose in the absence of DMSO were separately used for optimizing the melezitose effect. […] Therefore, the GelMA bioink combined with 8% melezitose and 10% DMSO was determined as the optimum formulation for cell-laden vertical cryobioprinting, and used in the following cellular experiments. […]
# Cell viability was assessed by staining with calcein-AM at 0.5 μL mL^−1 and ethidium homodimer-1 at 2 μL mL^−1 (Thermo Fisher Scientific). Cell viability imaging was done using an inverted Eclipse-Ti fluorescence microscope (Nikon). Cell viability was quantified by counting live and dead cells using the ImageJ software (National Institutes of Health). After loading the image, we would adjust the threshold to highlight all of the cells that need to be counted, and convert the image to a binary image. The number of live cells was then determined in the image. […]
# [5] = cited from earlier work
# [6] = previously reported (Tada N, et al.); cited from earlier work
smiles,measurement,setting,value
"C[S+](C)[O-] [DMSO, Dimethylsulfoxide]",FD value of ice crystals,[1],significantly decreased
same,optimum concentration of DMSO,"[2]; for the selected sugar types, versus DMSO-free group",10 % (v/v)
same,average size of the ice crystals,[3],significantly decreased
same,optimum concentration of DMSO for maximizing cell viability,[4]; absence of the saccharide,10%
"OC[C@H]1O[C@@H](O[C@H]2[C@H](O)[C@@H](O)C(O)O[C@@H]2CO)[C@H](O)[C@@H](O)[C@H]1O (stereo partly drawn) [Lactose, D-lactose]",most effective saccharide concentration for cell viability increase,[2],4 % (w/v)
"OC[C@H]1O[C@@](CO)(O[C@H]2O[C@H](CO)[C@@H](O)[C@H](O)[C@H]2O)[C@@H](O[C@H]2O[C@H](CO)[C@@H](O)[C@H](O)[C@H]2O)[C@@H]1O [Melezitose, D-(+)-melezitose hydrate]",most effective saccharide concentration for cell viability increase,[2],12 % (w/v)
same,melezitose concentration leading to highest cell viability,[4]; absence of DMSO,8%
same,Solubility at 20° C.,[5],781 mg/mL
"OC[C@H]1O[C@H](OC[C@H]2O[C@H](O[C@]3(CO)O[C@H](CO)[C@@H](O)[C@@H]3O)[C@H](O)[C@@H](O)[C@@H]2O)[C@H](O)[C@@H](O)[C@H]1O [Raffinose, D-(+) raffinose pentahydrate]",most effective saccharide concentration for cell viability increase,[2],4 % (w/v)
same,concentration effective as CPA,[6],10-18 % (w/v)
